Assay results published in patent US20240294550A1, “8-OXA-3-AZABICYCLO[3.2.1]OCTANE COMPOUNDS OR SALT THEREOF, AND PREPARATION METHOD AND USE THEREOF” (LITTDD MEDICINES LTD, priority 2021, published 2024).
Structures can show the parent of a compound that is named as a salt.

Key:
[1] = target: ATR (Homo sapiens (Human), UniProt Q13535); assay: ATR kinase inhibition assay (HTRF); format: biochemical; details: p53 substrate, ATP 150 nM
Procedure: This experiment adopted Homogeneous time-resolved fluorescence technology (HTRF®) of Cisbio Company for assay.
Experiment method: buffers were prepared as follows:
Preparation of solutions of the test compounds: The example compounds shown in the table below were prepared into solutions using DMSO as solvent, the stock solution typically being 10 mM. The maximum starting concentration in this experiment was 3 μM, DMSO 3-fold serial dilutions for concentrations, the serially diluted solution was added to each well of the corresponding 384-well plate (geriner bio-one, Cat #784075) to give final concentrations of 3000, 1000, 333, 111, 37, 12.3, 4.12, 1.37, 0.457, 0.152 nM, respectively, and the corresponding amount of DMSO was added to the additional wells to be used as negative or positive control wells, respectively.
The enzyme and substrate were separately dissolved and diluted in two tubes with the buffer prepared above at the following concentrations:
5 μL of the ATR protein solution from tube A was added to the compound-containing wells and the negative control wells in the assay plates using an electric multichannel pipettor, and the same volume of the prepared buffer (medium only, no enzyme) was added to the positive control wells. The plates were centrifuged for one minute at 1000 rpm, and then placed in an incubator at 25° C. for 15 minutes. 5 μL of the substrate mix solution from tube B was added to the positive control well, negative control well and the compound-containing well of the assay plates in the same manner, centrifuged and incubated at 25° C. for 90 minutes.
During the reaction, after ATR phosphorylated the substrate p53, two antibodies were added. Among them, anti-phospho-p53-Eu, as an energy donor, can specifically bind to the phosphorylation site of p53, while anti-GST-d2, as an energy receptor, can specifically bind to the GST-tagged p53. Upon excitation by a laser with certain wavelength (the excitation wavelength in this experiment is 340 nm), the energy donor can emit emission light of 615 nm, and when the energy donor and the energy receptor are close enough in space (that is, two antibodies are connected to p53 at the same time), energy transfer can occur between the energy donor and the energy receptor, so that the energy receptor can emit emission light of 665 nm. The two emission lights were detected by a plate reader, and the ratio of the signals at 665 nm and 615 nm was calculated. The IC50 of the samples tested can be obtained by plotting and calculation.
10 μL per well of the detection solution was added to the positive control, negative control and compound wells of the assay plate using an electric multichannel pipette, centrifuged and incubated overnight at 4° C., and read with the plate reader Envision 2104.
Compound inhibition rate was calculated using interpolation. The mean values of the positive and negative controls were calculated respectively, and the following formula was used to calculate the inhibition rates of the compounds:
Inhibition rate Minimum response+(Compound concentration ^Curve slope)*(Maximum response−Minimum response)/(Compound concentration^Curve slope+Half inhibition concentration ^Curve slope)
The IC50 value of each compound to enzyme activity was obtained.

[2] = system: LOVO cells; assay: Cell proliferation assay (CellTiter-Glo); format: cell-based; details: Homo sapiens, 96 hours
Procedure: The cell proliferation inhibition effect of the compound of the invention was tested using CellTiter-Glo™ cell viability assay kit. This kit uses luciferase as the detector. During the luminescence process, the luciferase requires the participation of ATP. CellTiter-Glo™ reagent was added to the cell culture medium, and the luminescence value was measured. The light signal is proportional to the amount of ATP present in the system, and ATP positively correlates with the number of viable cells present, thus the cell proliferation activity is measured.
Cell culture and seeding: LOVO cells in logarithmic growth phase (human colon carcinoma cells) (ATCC CCL-229) were harvested and counted using a platelet counter. Trypan blue exclusion method was used to detect the cell viability to ensure that the cell viability was above 90%. 90 μL of cell suspension (RPMI1640+10% fetal bovine serum) was added to a 96-well transparent flat-bottom black-wall plate (Thermo, 165305) respectively, and the cell concentration was adjusted to 3000/well/90 μl. Cells in the 96-well plate were incubated overnight at 37° C., 5% CO2 with 95% humidity (Thermo, Model 3100 Series).
Firstly, DMSO was used as the solvent to prepare 10 mM mother solution of the test compounds, and then PBS was used to dilute 100 times to prepare a solution of 10 times of final concentration, the highest concentration was 100 μM. 10 μL solution of the test compounds was added to each well of the 96 well plate inoculated with cells, namely the solution was further diluted 10 times to reach the final concentration of 10 μM. Starting from 10 μM, the final concentration of the test compound was 3-fold serially diluted, with 9 concentrations in total with 3 triplicates for each concentration. The 96 well plates with the test compounds and cells were incubated at 37° C., 5% CO2 and 95% humidity for 96 hours, and then CellTiter Glo analysis was performed.
CellTiter-Glo Reagents (CellTiter Glo R Luminescent Cell Viability Assay, Promega, G7572) were melted and the 96-well plates were equilibrated to room temperature for 30 minutes. An equal volume of CellTiter-Glo solution was added to each well, and the cells were lysed by shaking on the fixed orbit shaker for 5 minutes. The assay plates were left at room temperature for 20 minutes to stabilize the luminescence signal, and the luminescence signals were read using the SpectraMax multi-labeled microplate detector (MD, M3).
Data were analyzed using GraphPad Prism 7.0 software, fitted with non-linear S-curve regression to derive the dose-response curves, and IC50 values were calculated therefrom.
Cell survival rate (%)=(LumDrug to be tested−LumCulture medium control)/(LumCell control−LumCulture medium control)×100%

ATR, sequence (Q13535 whole entry): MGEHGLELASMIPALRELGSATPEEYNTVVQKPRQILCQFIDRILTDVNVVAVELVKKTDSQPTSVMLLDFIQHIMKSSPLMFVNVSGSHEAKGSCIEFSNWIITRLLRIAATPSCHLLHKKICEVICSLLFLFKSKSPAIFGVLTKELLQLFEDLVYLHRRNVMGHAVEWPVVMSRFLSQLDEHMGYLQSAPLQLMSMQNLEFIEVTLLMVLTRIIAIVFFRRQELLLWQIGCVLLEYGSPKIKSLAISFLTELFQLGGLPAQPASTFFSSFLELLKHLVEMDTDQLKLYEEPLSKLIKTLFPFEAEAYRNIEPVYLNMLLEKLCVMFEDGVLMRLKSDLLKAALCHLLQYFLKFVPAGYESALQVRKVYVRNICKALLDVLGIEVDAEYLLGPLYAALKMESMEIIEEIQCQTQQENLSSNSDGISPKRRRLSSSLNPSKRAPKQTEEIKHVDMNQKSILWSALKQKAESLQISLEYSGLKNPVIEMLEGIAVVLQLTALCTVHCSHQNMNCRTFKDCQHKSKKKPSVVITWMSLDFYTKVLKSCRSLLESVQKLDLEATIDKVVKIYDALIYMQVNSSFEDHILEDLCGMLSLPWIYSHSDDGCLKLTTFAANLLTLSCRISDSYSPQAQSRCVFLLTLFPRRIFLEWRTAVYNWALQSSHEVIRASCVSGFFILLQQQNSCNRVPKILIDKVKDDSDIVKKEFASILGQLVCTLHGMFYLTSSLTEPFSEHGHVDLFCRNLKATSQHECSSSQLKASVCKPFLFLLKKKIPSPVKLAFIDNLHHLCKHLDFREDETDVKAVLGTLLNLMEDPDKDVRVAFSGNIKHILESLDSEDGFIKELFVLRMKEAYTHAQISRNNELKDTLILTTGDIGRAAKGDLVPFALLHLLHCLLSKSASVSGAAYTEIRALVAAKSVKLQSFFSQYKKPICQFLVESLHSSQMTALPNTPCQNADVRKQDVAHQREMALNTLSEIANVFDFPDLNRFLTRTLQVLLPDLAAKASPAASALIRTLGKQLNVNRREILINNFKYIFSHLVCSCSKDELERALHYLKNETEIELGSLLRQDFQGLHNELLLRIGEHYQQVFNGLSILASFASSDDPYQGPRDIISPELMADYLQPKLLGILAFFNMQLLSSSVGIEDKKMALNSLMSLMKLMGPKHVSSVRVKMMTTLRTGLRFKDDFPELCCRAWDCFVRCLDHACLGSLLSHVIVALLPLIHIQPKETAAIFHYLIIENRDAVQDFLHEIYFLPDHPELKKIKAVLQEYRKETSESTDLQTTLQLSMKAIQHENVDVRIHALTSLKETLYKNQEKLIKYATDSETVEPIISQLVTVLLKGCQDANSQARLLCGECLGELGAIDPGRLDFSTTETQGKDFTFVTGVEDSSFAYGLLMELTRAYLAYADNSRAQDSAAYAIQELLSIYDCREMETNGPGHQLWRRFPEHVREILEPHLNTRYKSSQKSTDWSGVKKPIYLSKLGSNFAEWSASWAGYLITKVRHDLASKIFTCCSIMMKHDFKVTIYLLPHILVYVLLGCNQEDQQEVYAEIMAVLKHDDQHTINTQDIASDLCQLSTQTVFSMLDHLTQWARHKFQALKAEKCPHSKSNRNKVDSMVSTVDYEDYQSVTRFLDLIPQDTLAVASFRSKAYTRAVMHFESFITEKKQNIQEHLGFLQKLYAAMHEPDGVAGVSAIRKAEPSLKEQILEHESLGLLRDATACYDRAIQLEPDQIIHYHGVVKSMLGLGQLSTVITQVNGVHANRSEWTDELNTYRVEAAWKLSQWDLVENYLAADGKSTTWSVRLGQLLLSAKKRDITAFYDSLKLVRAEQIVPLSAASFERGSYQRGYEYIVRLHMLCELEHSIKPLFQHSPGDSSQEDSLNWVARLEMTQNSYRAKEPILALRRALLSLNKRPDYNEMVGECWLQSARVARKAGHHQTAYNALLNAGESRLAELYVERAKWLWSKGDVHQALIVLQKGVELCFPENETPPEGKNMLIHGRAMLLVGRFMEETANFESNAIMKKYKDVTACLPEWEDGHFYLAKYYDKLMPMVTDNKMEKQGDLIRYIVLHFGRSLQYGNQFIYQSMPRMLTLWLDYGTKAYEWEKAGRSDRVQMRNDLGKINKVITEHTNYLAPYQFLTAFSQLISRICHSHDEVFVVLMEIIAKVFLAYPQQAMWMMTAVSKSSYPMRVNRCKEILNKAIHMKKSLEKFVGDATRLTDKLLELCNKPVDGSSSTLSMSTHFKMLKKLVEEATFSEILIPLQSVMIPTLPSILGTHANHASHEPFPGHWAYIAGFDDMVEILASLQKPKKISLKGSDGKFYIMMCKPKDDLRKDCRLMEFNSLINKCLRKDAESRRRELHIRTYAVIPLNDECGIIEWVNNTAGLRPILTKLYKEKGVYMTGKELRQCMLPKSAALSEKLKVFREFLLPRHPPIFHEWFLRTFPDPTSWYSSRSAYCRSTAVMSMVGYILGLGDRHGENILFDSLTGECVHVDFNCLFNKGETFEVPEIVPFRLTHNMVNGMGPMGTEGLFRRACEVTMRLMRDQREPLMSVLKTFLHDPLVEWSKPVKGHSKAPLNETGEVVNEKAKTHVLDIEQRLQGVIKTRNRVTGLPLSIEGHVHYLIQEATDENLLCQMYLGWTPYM
ATR, sequence (Q8WXE1 whole entry partner): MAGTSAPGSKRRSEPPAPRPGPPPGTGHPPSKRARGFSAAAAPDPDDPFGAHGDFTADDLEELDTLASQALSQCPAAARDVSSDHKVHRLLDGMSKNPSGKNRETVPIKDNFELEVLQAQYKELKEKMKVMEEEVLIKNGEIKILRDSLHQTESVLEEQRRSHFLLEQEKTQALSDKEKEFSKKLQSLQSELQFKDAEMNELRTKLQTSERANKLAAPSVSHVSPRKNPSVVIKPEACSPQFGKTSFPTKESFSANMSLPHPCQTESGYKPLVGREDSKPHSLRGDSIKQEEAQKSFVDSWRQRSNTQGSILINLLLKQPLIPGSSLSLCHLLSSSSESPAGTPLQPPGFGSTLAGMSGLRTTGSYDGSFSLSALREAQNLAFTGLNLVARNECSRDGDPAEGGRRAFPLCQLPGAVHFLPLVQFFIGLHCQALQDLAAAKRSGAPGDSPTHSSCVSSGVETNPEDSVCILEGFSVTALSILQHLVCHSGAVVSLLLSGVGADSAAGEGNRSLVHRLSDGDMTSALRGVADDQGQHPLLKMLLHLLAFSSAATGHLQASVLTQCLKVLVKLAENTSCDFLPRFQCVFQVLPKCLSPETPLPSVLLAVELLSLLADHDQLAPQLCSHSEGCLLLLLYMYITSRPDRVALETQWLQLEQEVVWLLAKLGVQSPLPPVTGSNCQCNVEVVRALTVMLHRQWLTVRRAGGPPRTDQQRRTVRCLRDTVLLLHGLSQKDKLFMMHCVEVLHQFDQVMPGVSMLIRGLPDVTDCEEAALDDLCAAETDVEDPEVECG

| IC50 [1] [nM] | IC50 [2] [nM] | Structure (SMILES) |
| --- | --- | --- |
| 1.4 | 39 | CC1(C)COCCN1c1cc(N2CC3CCC(C2)O3)nn2c(-c3cc[nH]n3)ncc12 [Example 20, 3-(4-(3,3-dimethylmorpholino)-7-(1H-pyrazol-3-yl)imidazo[1,5-b]pyridazin-2-yl)-8-oxa-3-azabicyclo[3.2.1]octane] |
| 5.6 | 156 | C[C@H]1CC(F)(F)CCN1c1cc(N2CC3CCC(C2)O3)nn2c(-c3cc[nH]n3)ncc12 [Example 32, 3-(4-((S)-4,4-difluoro-2-methylpiperidin-1-yl)-7-(1H-pyrazol-3-yl)imidazo[1,5-b]pyridazin-2-yl)-8-oxa-3-azabicyclo[3.2.1]octane] |
| 50.8 |  | CC1CN(c2cc(N3CC4CCC(C3)O4)nn3c(-c4cc[nH]n4)ncc23)CCO1 (stereo not drawn) [Example 18, 3-(4-(2-methylmorpholino)-7-(1H-pyrazol-3-yl)imidazo[1,5-b]pyridazin-2-yl)-8-oxa-3-azabicyclo[3.2.1]octane] |
| 20.3 | 140 | C[C@@H]1COCCN1c1c(Cl)c(N2CC3CCC(C2)O3)nn2c(-c3cc[nH]n3)ncc12 [Example 4, 3-(3-chloro-4-((R)-3-methylmorpholino)-7-(1H-pyrazol-3-yl)imidazo[1,5-b]pyridazin-2-yl)-8-oxa-3-azabicyclo[3.2.1]octane] |
| 145 |  | c1cc(-c2ncc3c(N4CCNCC4)cc(N4CC5CCC(C4)O5)nn23)n[nH]1 [Example 10, 3-(4-(piperazin-1-yl)-7-(1H-pyrazol-3-yl)imidazo[1,5-b]pyridazin-2-yl)-8-oxa-3-azabicyclo[3.2.1]octane formate] |
| 15.3 | 522 | OCC1COCCN1c1cc(N2C[C@H]3CC[C@@H](C2)O3)nc2c1cnn2-c1cc[nH]n1 (stereo partly drawn) [Example 35, (4-(6-((1R,5S)-8-oxa-3-azabicyclo[3.2.1]octan-3-yl)-1-(1H-pyrazol-3-yl)-1H-pyrazolo[3,4-b]pyridin-4-yl)morpholin-3-yl)methanol] |
| 8 | 419 | FC1(F)CCN(c2cc(N3CC4CCC(C3)O4)nn3c(-c4cc[nH]n4)ncc23)CC1 [Example 14, 3-(4-(4,4-difluoropiperidin-1-yl)-7-(1H-pyrazol-3-yl)imidazo[1,5-b]pyridazin-2-yl)-8-oxa-3-azabicyclo[3.2.1]octane] |
| 5.2 |  | CC1CC(F)(F)CCN1c1cc(N2CC3CCC(C2)O3)nn2c(-c3cc[nH]n3)ncc12 (stereo not drawn) [Example 30, 3-(4-(4,4-difluoro-2-methylpiperidin-1-yl)-7-(1H-pyrazol-3-yl)imidazo[1,5-b]pyridazin-2-yl)-8-oxa-3-azabicyclo[3.2.1]octane] |
| 6.2 | 148 | CC1(C)COCCN1c1cc(N2CC3CCC(C2)O3)nc2c(-c3ccn[nH]3)cnn12 [Example 36, 3-(7-(3,3-dimethylmorpholino)-3-(1H-pyrazol-5-yl)pyrazolo[1,5-a]pyrimidin-5-yl)-8-oxa-3-azabicyclo[3.2.1]octane] |
| 4.5 | 488 | CC(=O)N1CCN(c2cc(N3C[C@H]4CC[C@@H](C3)O4)nn3c(-c4cc[nH]n4)ncc23)[C@H](C)C1 [Example 29, 1-((R)-4-(2-((1R,5S)-8-oxa-3-azabicyclo[3.2.1]octan-3-yl)-7-(1H-pyrazol-3-yl)imidazo[1,5-b]pyridazin-4-yl)-3-methylpiperazin-1-yl)ethan-1-one] |
| 22.4 | 2640 | C[C@@H]1CN(C)CCN1c1cc(N2CC3CCC(C2)O3)nn2c(-c3cc[nH]n3)ncc12 [Example 11, 3-(4-((R)-2,4-dimethylpiperazin-1-yl)-7-(1H-pyrazol-3-yl)imidazo[1,5-b]pyridazin-2-yl)-8-oxa-3-azabicyclo[3.2.1]octane formate] |
| 85.5 |  | OC1(c2cc(N3C[C@H]4CC[C@@H](C3)O4)nc3c(-c4ccn[nH]4)cnn23)CCOCC1 [Example 23, 4-(5-((1R,5S)-8-oxa-3-azabicyclo[3.2.1]octan-3-yl)-3-(1H-pyrazol-5-yl)pyrazolo[1,5-a]pyrimidin-7-yl)tetrahydro-2H-pyran-4-ol] |
| 21.4 |  | c1cc(-c2ncc3c(N4CCOCC4)cc(N4CC5CCC(C4)O5)nn23)n[nH]1 [Example 7, 3-(4-morpholino-7-(1H-pyrazol-3-yl)imidazo[1,5-b]pyridazin-2-yl)-8-oxa-3-azabicyclo[3.2.1]octane] |
| 79.2 | 592 | C[C@@H]1CNCCN1c1cc(N2CC3CCC(C2)O3)nn2c(-c3cc[nH]n3)ncc12 [Example 9, 3-(4-((R)-2-methylpiperazin-1-yl)-7-(1H-pyrazol-3-yl)imidazo[1,5-b]pyridazin-2-yl)-8-oxa-3-azabicyclo[3.2.1]octane formate] |
| 16.9 |  | c1cc(-n2ncc3c(N4CC5CCC(C4)O5)cc(N4CC5CCC(C4)O5)nc32)n[nH]1 [Example 12, 3-(6-(-8-oxa-3-azabicyclo[3.2.1]octan-3-yl)-1-(1H-pyrazol-3-yl)-1H-pyrazolo[3,4-b]pyridin-4-yl)-8-oxa-3-azabicyclo[3.2.1]octane] |
| 32 |  | c1cc(-c2ncc3c(N4CCCCC4)cc(N4CC5CCC(C4)O5)nn23)n[nH]1 [Example 17, 3-(4-(piperidin-1-yl)-7-(1H-pyrazol-3-yl)imidazo[1,5-b]pyridazin-2-yl)-8-oxa-3-azabicyclo[3.2.1]octane] |
|  | 620 | C[C@@H]1COCCN1c1cc(N2CC3CCC(C2)O3)nc2c(-c3cc[nH]n3)nn(C)c12 [Example 19, 3-(1-methyl-7-((R)-3-methylmorpholino)-3-(1H-pyrazol-3-yl)-1H-pyrazolo[4,3-b]pyridin-5-yl)-8-oxa-3-azabicyclo[3.2.1]octane] |
| 149 |  | Cn1nccc1-c1cc(N2CC3CCC(C2)O3)nn2c(-c3cc[nH]n3)cnc12 [Example 27, 3-(8-(1-methyl-1H-pyrazol-5-yl)-3-(1H-pyrazol-3-yl)imidazo[1,2-b]pyridazin-6-yl)-8-oxa-3-azabicyclo[3.2.1]octane] |
| 18 |  | Cn1nc(-c2cc[nH]n2)c2nc(N3CC4CCC(C3)O4)cc(N3CC4CCC(C3)O4)c21 [Example 13, 3-(7-(8-oxa-3-azabicyclo[3.2.1]octan-3-yl)-1-methyl-3-(1H-pyrazol-3-yl)-1H-pyrazolo[4,3-b]pyridin-5-yl)-8-oxa-3-azabicyclo[3.2.1]octane] |

| Structure (SMILES) | IC50 [1] [nM] | IC50 [2] [nM] |
| --- | --- | --- |
| c1cc(-c2ncc3c(N4C5CCC4COC5)cc(N4CC5CCC(C4)O5)nn23)n[nH]1 [Example 8, 8-(2-(8-oxa-3-azabicyclo[3.2.1]octan-3-yl)-7-(1H-pyrazol-3-yl)imidazo[1,5-b]pyridazin-4-yl)-3-oxa-8-azabicyclo[3.2.1]octane] | 18.4 | 243 |
